According to US10238661B2, “Fused, spirocyclic heteroaromatic compounds for the treatment of bacterial infections” (priority 2014, dated 2019):
Converted amounts (≈) assume the structure as drawn. “And” between values parts separate entries of the source, which are not always exact repeats. Equal entries are not always repeated. Where two headings read alike, the source gives them in different places.

Tests used:
Mycoplasma pneumoniae [1] = conditions: Mycoplasma pneumoniae ATCC 29342; CLSI M43-A acceptable QC range; cited from earlier work
Ureaplasma species [2] = conditions: Ureaplasma urealyticum ATCC 33175; CLSI M43-A acceptable QC range; cited from earlier work
Mycoplasma genitalium = test: microbe, parasite or virus in culture; type: cell-based; conditions: for MIC: Mycoplasmoides genitalium
Mycoplasma pneumoniae [3] = test: Broth microdilution MIC assay (CLSI M43-A), M. pneumoniae; type: cell-based; conditions: for MIC: read-out: MIC
Mycoplasma hominis = test: microbe, parasite or virus in culture; type: cell-based
Ureaplasma species [4] = test: microbe, parasite or virus in culture; type: cell-based, Ureaplasma urealyticum, Ureaplasma parvum
Burkholderia mallei = test: microbe, parasite or virus in culture; type: cell-based
Brucella abortus = test: microbe, parasite or virus in culture; type: cell-based
Yersinia pestis = test: microbe, parasite or virus in culture; type: cell-based; conditions: Yersinia pestis
Francisella tularensis = test: microbe, parasite or virus in culture; type: cell-based; conditions: Francisella tularensis
Bacillus anthracis = test: microbe, parasite or virus in culture; type: cell-based; conditions: Bacillus anthracis
Brucella suis = test: microbe, parasite or virus in culture; type: cell-based

SMILES: CC[C@H]1OC(=O)[C@H](C)[C@@H](O[C@H]2C[C@@](C)(OC)[C@@H](O)[C@H](C)O2)[C@H](C)[C@@H](O[C@@H]2O[C@H](C)C[C@H](N(C)C)[C@H]2O)[C@](C)(O)C[C@@H](C)C(=O)[C@H](C)[C@@H](O)[C@]1(C)O [Erythromycin]
- MIC Limits for Quality Control Strain (Mycoplasma pneumoniae [1]): 0.004 to 0.063 µg/mL
- MIC Limits for Quality Control Strain (Ureaplasma species [2]): 1 to 8 µg/mL

SMILES: C[C@H]1COc2c(N3CCN(C)CC3)c(F)cc3c(=O)c(C(=O)O)cn1c23 [Levofloxacin]
- MIC Range (Mycoplasma genitalium): 0.5 to 2 µg/mL
- MIC (Mycoplasma genitalium): 0.5 µg/mL (≈ 1.38 µM)
- MIC (Mycoplasma genitalium; ATCC33530): 2 µg/mL (≈ 5.53 µM)
- MIC (Mycoplasma genitalium; ATCC49895): 2 µg/mL (≈ 5.53 µM)
- MIC (Mycoplasma genitalium; ATCC49899): 2 µg/mL (≈ 5.53 µM)
- MIC (Mycoplasma pneumoniae [3]; M. pneumoniae M-129 QC Strain ATCC 29342-B7): 1 µg/mL (≈ 2.77 µM)
- MIC (Mycoplasma pneumoniae [3]; M. pneumoniae isolate 51494): 1 µg/mL (≈ 2.77 µM)
- MIC (Mycoplasma pneumoniae [3]; M. pneumoniae isolate 53706): 0.5 µg/mL (≈ 1.38 µM)
- MIC (Mycoplasma pneumoniae [3]; M. pneumoniae isolate 53938): 1 µg/mL (≈ 2.77 µM)
- MIC (Mycoplasma pneumoniae [3]; M. pneumoniae isolate 54484, macrolide-resistant): 0.5 µg/mL (≈ 1.38 µM)
- MIC (Mycoplasma pneumoniae [3]; M. pneumoniae isolate 54506, macrolide-resistant): 0.5 µg/mL (≈ 1.38 µM)
- MIC (Mycoplasma pneumoniae [3]; M. pneumoniae isolate 55246): 1 µg/mL (≈ 2.77 µM)
- MIC (Mycoplasma pneumoniae [3]; M. pneumoniae isolate 55612): 0.5 µg/mL (≈ 1.38 µM)
- MIC (Mycoplasma pneumoniae [3]; M. pneumoniae isolate 57807): 0.5 µg/mL (≈ 1.38 µM)
- MIC (Mycoplasma pneumoniae [3]; M. pneumoniae isolate 58188): 0.5 µg/mL (≈ 1.38 µM)
- MIC (Mycoplasma pneumoniae [3]; M. pneumoniae isolate 58772): 1 µg/mL (≈ 2.77 µM)
- MIC (Mycoplasma pneumoniae [3]; M. pneumoniae isolate 59597): 0.5 µg/mL (≈ 1.38 µM)
- MIC (Mycoplasma pneumoniae [3]; M. pneumoniae isolate 59598): 1 µg/mL (≈ 2.77 µM)
- MIC50 (Mycoplasma pneumoniae [3]; M. pneumoniae isolates, n = 12): 0.5 µg/mL (≈ 1.38 µM)
- MIC90 (Mycoplasma pneumoniae [3]; M. pneumoniae isolates, n = 12): 1 µg/mL (≈ 2.77 µM)
- MIC Range (Mycoplasma pneumoniae [3]; M. pneumoniae isolates, n = 12): 0.5 to 1 µg/mL
- MIC Range (Mycoplasma hominis): 0.063 to 0.25 µg/mL
- MIC50 (Mycoplasma hominis; Metamycoplasma hominis): 0.125 µg/mL (≈ 0.346 µM)
- MIC90 (Mycoplasma hominis; Metamycoplasma hominis): 0.25 µg/mL (≈ 0.692 µM)
- MIC Range (Ureaplasma species [4]): 0.25 to 32 µg/mL
- MIC50 (Ureaplasma species [4]; Ureaplasma): 1 µg/mL (≈ 2.77 µM)
- MIC90 (Ureaplasma species [4]; Ureaplasma): 8 µg/mL (≈ 22.1 µM)
- MIC (Ureaplasma species [4]; Ureaplasma, ATCC33175): 1 µg/mL (≈ 2.77 µM)
- MIC (Burkholderia mallei): 0.5 µg/mL and 0.25 µg/mL
- MIC (Brucella abortus): 0.25 µg/mL (≈ 0.692 µM)
- MIC (Brucella abortus; Brucella abortus): 0.5 µg/mL (≈ 1.38 µM)
- MIC (Yersinia pestis): ≤ 0.25 µg/mL
- MIC (Francisella tularensis): ≤ 0.125 µg/mL
- MIC (Bacillus anthracis): ≤ 0.25 µg/mL
- MIC (Brucella suis): 0.25 µg/mL (≈ 0.692 µM)
- MIC (Brucella suis; Brucella suis): 0.5 µg/mL (≈ 1.38 µM)

SMILES: CC[C@H]1OC(=O)[C@H](C)C(=O)[C@H](C)[C@@H](O[C@@H]2O[C@H](C)C[C@H](N(C)C)[C@H]2O)[C@](C)(OC)C[C@@H](C)C(=O)[C@H](C)[C@H]2N(CCCCn3cnc(-c4cccnc4)c3)C(=O)O[C@]12C [Telithromycin]
- MIC Limits for Quality Control Strain (Ureaplasma species [2]): 0.125 to 1 µg/mL

SMILES: CN(C)[C@@H]1C(O)=C(C(N)=O)C(=O)[C@@]2(O)C(O)=C3C(=O)c4c(O)cccc4[C@@](C)(O)[C@H]3C[C@@H]12 [Tetracycline]
- MICs for isolates with tetM (Mycoplasma hominis): 32 µg/mL
